Results from PubChem BioAssay AID1259407 (Chemical Carcinogenesis Research Information System (CCRIS), 2018).
The source made the active and inactive calls. The rule behind the calls is not given here.

Tested on: CCRIS mutagenicity, Ames/micronucleus/aberration tests
Test: CCRIS mutagenicity studies
[1] = Test System: AMES SALMONELLA TYPHIMURIUM, Strain/Indicator: TA98, Metabolic Activation: NONE, Method: STANDARD PLATE
[2] = Test System: AMES SALMONELLA TYPHIMURIUM, Strain/Indicator: TA100, Metabolic Activation: NONE, Method: STANDARD PLATE
[3] = Test System: AMES SALMONELLA TYPHIMURIUM, Strain/Indicator: TA100, Metabolic Activation: RAT LIVER S-9, PHENOBARBITAL AND 5,6-BENZOFLAVONE, Method: PREINCUBATION

## NC(N)=S
Test System: AMES SALMONELLA TYPHIMURIUM, Strain/Indicator: TA97, Metabolic Activation: HAMSTER, LIVER, S-9, AROCLOR 1254 (10 OR 30%), Method: PREINCUBATION
  mutagenic call: inactive; negative
Test System: AMES SALMONELLA TYPHIMURIUM, Strain/Indicator: TA97, Metabolic Activation: NONE, Method: PREINCUBATION
  mutagenic call: inactive; negative
Test System: AMES SALMONELLA TYPHIMURIUM, Strain/Indicator: TA97, Metabolic Activation: NONE, Method: STANDARD PLATE
  mutagenic call: inactive; negative
Test System: AMES SALMONELLA TYPHIMURIUM, Strain/Indicator: TA97, Metabolic Activation: RAT, LIVER, S-9, AROCLOR 1254 (10 OR 30%), Method: PREINCUBATION
  mutagenic call: inactive; negative
Test System: AMES SALMONELLA TYPHIMURIUM, Strain/Indicator: TA97, Metabolic Activation: RAT, LIVER, S-9, AROCLOR 1254, Method: STANDARD PLATE
  mutagenic call: inactive; negative
Test System: AMES SALMONELLA TYPHIMURIUM, Strain/Indicator: TA98, Metabolic Activation: HAMSTER, LIVER, S-9, AROCLOR 1254 (10 OR 30%), Method: PREINCUBATION
  mutagenic call: inactive; negative
Test System: AMES SALMONELLA TYPHIMURIUM, Strain/Indicator: TA98, Metabolic Activation: NONE, Method: PREINCUBATION
  mutagenic call: inactive; negative
[1]
  mutagenic call: inactive; negative
Test System: AMES SALMONELLA TYPHIMURIUM, Strain/Indicator: TA98, Metabolic Activation: RAT LIVER S-9, PHENOBARBITAL AND BETA-NAPHTHOFLAVONE, Method: PREINCUBATION
  mutagenic call: inactive; negative
Test System: AMES SALMONELLA TYPHIMURIUM, Strain/Indicator: TA98, Metabolic Activation: RAT, LIVER, S-9, AROCLOR 1254 (10 OR 30%), Method: PREINCUBATION
  mutagenic call: inactive; negative
Test System: AMES SALMONELLA TYPHIMURIUM, Strain/Indicator: TA98, Metabolic Activation: RAT, LIVER, S-9, AROCLOR 1254, Method: STANDARD PLATE
  mutagenic call: inactive; negative
Test System: AMES SALMONELLA TYPHIMURIUM, Strain/Indicator: TA100, Metabolic Activation: HAMSTER, LIVER, S-9, AROCLOR 1254 (10 OR 30%), Method: PREINCUBATION
  mutagenic call: inactive; negative
Test System: AMES SALMONELLA TYPHIMURIUM, Strain/Indicator: TA100, Metabolic Activation: NONE, Method: PREINCUBATION
  mutagenic call: inactive; negative
[2]
  mutagenic call: inactive; negative
Test System: AMES SALMONELLA TYPHIMURIUM, Strain/Indicator: TA100, Metabolic Activation: RAT LIVER S-9, PHENOBARBITAL AND BETA-NAPHTHOFLAVONE, Method: PREINCUBATION
  mutagenic call: inactive; negative
Test System: AMES SALMONELLA TYPHIMURIUM, Strain/Indicator: TA100, Metabolic Activation: RAT, LIVER, S-9, AROCLOR 1254 (10 OR 30%), Method: PREINCUBATION
  mutagenic call: inactive; negative
Test System: AMES SALMONELLA TYPHIMURIUM, Strain/Indicator: TA100, Metabolic Activation: RAT, LIVER, S-9, AROCLOR 1254, Method: STANDARD PLATE
  mutagenic call: inactive; negative
Test System: AMES SALMONELLA TYPHIMURIUM, Strain/Indicator: TA1535, Metabolic Activation: HAMSTER, LIVER, S-9, AROCLOR 1254 (10 OR 30%), Method: PREINCUBATION
  mutagenic call: inactive; negative
Test System: AMES SALMONELLA TYPHIMURIUM, Strain/Indicator: TA1535, Metabolic Activation: NONE, Method: PREINCUBATION
  mutagenic call: inactive; negative
Test System: AMES SALMONELLA TYPHIMURIUM, Strain/Indicator: TA1535, Metabolic Activation: RAT LIVER S-9, PHENOBARBITAL AND BETA-NAPHTHOFLAVONE, Method: PREINCUBATION
  mutagenic call: inactive; negative
Test System: AMES SALMONELLA TYPHIMURIUM, Strain/Indicator: TA1535, Metabolic Activation: RAT, LIVER, S-9, AROCLOR 1254 (10 OR 30%), Method: PREINCUBATION
  mutagenic call: inactive; negative
Test System: AMES SALMONELLA TYPHIMURIUM, Strain/Indicator: TA1537, Metabolic Activation: NONE, Method: PREINCUBATION
  mutagenic call: inactive; negative
Test System: AMES SALMONELLA TYPHIMURIUM, Strain/Indicator: TA1537, Metabolic Activation: RAT LIVER S-9, PHENOBARBITAL AND BETA-NAPHTHOFLAVONE, Method: PREINCUBATION
  mutagenic call: inactive; negative
Test System: E. COLI, Strain/Indicator: WP2 UVRA, Metabolic Activation: HAMSTER, LIVER, S-9, AROCLOR 1254, Method: STANDARD PLATE
  mutagenic call: inactive; negative
Test System: E. COLI, Strain/Indicator: WP2 UVRA, Metabolic Activation: HAMSTER, LIVER, S-9, Method: STANDARD PLATE
  mutagenic call: inactive; negative
Test System: E. COLI, Strain/Indicator: WP2 UVRA, Metabolic Activation: MOUSE, LIVER, S-9, AROCLOR 1254, Method: STANDARD PLATE
  mutagenic call: inactive; negative
Test System: E. COLI, Strain/Indicator: WP2 UVRA, Metabolic Activation: MOUSE, LIVER, S-9, Method: STANDARD PLATE
  mutagenic call: inactive; negative
Test System: E. COLI, Strain/Indicator: WP2 UVRA, Metabolic Activation: NONE, Method: STANDARD PLATE
  mutagenic call: inactive; negative
Test System: E. COLI, Strain/Indicator: WP2 UVRA, Metabolic Activation: RAT, LIVER, S-9, AROCLOR 1254, Method: STANDARD PLATE
  mutagenic call: inactive; negative
Test System: E. COLI, Strain/Indicator: WP2 UVRA, Metabolic Activation: RAT, LIVER, S-9, Method: STANDARD PLATE
  mutagenic call: inactive; negative
Test System: E.COLI, Strain/Indicator: WP2UVRA/PKM101, Metabolic Activation: NONE, Method: PREINCUBATION
  mutagenic call: inactive; negative
Test System: E.COLI, Strain/Indicator: WP2UVRA/PKM101, Metabolic Activation: RAT LIVER S-9, PHENOBARBITAL AND BETA-NAPHTHOFLAVONE, Method: PREINCUBATION
  mutagenic call: inactive; negative
Test System: MOUSE LYMPHOMA, Strain/Indicator: L5178Y (TK+/TK-), Metabolic Activation: NONE, Method: SUSPENSION/PLATE
  mutagenic call: inactive; negative

## C[C@H]1C=C(C=O)[C@H](C=O)[C@@H](O)[C@@H]2CC(C)(C)C[C@@H]21
[1]
  mutagenic call: inactive; negative
[2]
  mutagenic call: inactive; negative
Test System: AMES SALMONELLA TYPHIMURIUM, Strain/Indicator: TA2637, Metabolic Activation: NONE, Method: STANDARD PLATE
  mutagenic call: inactive; negative

## Fc1cccc2cccnc12
End Point: In vitro chromosomal aberrations, Test System: Chinese hamster lung fibroblast cells (CHL/IU), Metabolic Activation: Rat, Liver, S-9
  mutagenic call: active; positive, described as marginally clastogenic at nontoxic doses. (information de
End Point: In vitro micronucleus, Test System: Chinese hamster lung fibroblast cells (CHL/IU), Metabolic Activation: Rat, Liver, S-9
  mutagenic call: inactive; negative, cytotoxic at 0.2 mg/ml. (information derived from a figure)
[3]
  mutagenic call: active; positive
Test System: AMES SALMONELLA TYPHIMURIUM, Strain/Indicator: TA100, Metabolic Activation: RAT, LIVER, S-9, AROCLOR 1254, Method: PREINCUBATION
  mutagenic call: active; positive
Test System: AMES SALMONELLA TYPHIMURIUM, Strain/Indicator: TA100, Metabolic Activation: RAT, LIVER, S-9, PHENOBARBITAL AND 5,6-BENZOFLAVONE, Method: PREINCUBATION
  mutagenic call: active; positive
Test System: AMES SALMONELLA TYPHIMURIUM, Strain/Indicator: TA100, Metabolic Activation: RAT, LIVER, S-9, PHENOBARBITAL AND 5,6-NAPHTHOFLAVONE, Method: PREINCUBATION
  mutagenic call: active; positive
Test System: AMES SALMONELLA TYPHIMURIUM, Strain/Indicator: TA100, Metabolic Activation: S-9, Method: PREINCUBATION
  mutagenic call: active; positive
Test System: UDS RODENT HEPATOCYTES, Strain/Indicator: THY INCORP (NON-S-PHASE), Metabolic Activation: NONE, Method: AUTORADIOGRAPHY
  mutagenic call: active; positive

## Cc1c([N+](=O)[O-])cc(C)c2c1c1ccccc1n2C
[1]
  mutagenic call: active; positive
Test System: AMES SALMONELLA TYPHIMURIUM, Strain/Indicator: TA98, Metabolic Activation: RAT LIVER S-9, AROCLOR 1254, Method: STANDARD PLATE
  mutagenic call: active; positive
[2]
  mutagenic call: active; positive
Test System: AMES SALMONELLA TYPHIMURIUM, Strain/Indicator: TA100, Metabolic Activation: RAT LIVER S-9, AROCLOR 1254, Method: STANDARD PLATE
  mutagenic call: active; positive

## Nc1ccc2sncc2c1
Test System: AMES SALMONELLA TYPHIMURIUM, Strain/Indicator: TA100, Metabolic Activation: S-9, Method: STANDARD PLATE
  mutagenic call: active; positive

## Fc1cc2cccnc2c(F)c1F
[3]
  mutagenic call: inactive; negative

## Cc1cc2c(C(C)C)c(O)c(O)c(C=O)c2c(O)c1-c1c(C)cc2c(C(C)C)c(O)c(O)c(C=O)c2c1O
[1]
  mutagenic call: inactive; negative
Test System: AMES SALMONELLA TYPHIMURIUM, Strain/Indicator: TA98, Metabolic Activation: RAT, LIVER, S-9, AROCLOR 1254 OR PHENOBARBITAL, Method: STANDARD PLATE
  mutagenic call: inactive; negative
[2]
  mutagenic call: inactive; negative
Test System: AMES SALMONELLA TYPHIMURIUM, Strain/Indicator: TA100, Metabolic Activation: RAT, LIVER, S-9, AROCLOR 1254 OR PHENOBARBITAL, Method: STANDARD PLATE
  mutagenic call: inactive; negative
